{"source": "patent US10760110B2", "about": "“Antibiotic testing and screening system” (priority 2017, dated 2020)", "details_in_all_cases": "Klebsiella pneumoniae", "key": {"[1]": {"system": "K. pneumoniae NVT1001 ΔramRΔompK35/36 mutant and its revertants", "assay": "Etest MIC, ΔramRΔompK35/36 mutant and its revertants (Table 7)", "format": "cell-based"}, "[2]": {"system": "K. pneumoniae NVT1001 strains with carbapenemase plasmids", "assay": "Etest MIC of β-lactams, OmpK35/36 loss, ΔramR and/or carbapenemase (Table 9)", "format": "cell-based, Klebsiella pneumoniae", "summary_of_the_method": "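Cloned resistance genes in pACYC177 or pACYC184 were electroporated into K. pneumoniae NVT1001. MICs were determined by Etest and rounded up to the next two-fold value. Ceftazidime and cefotaxime against the blaOXA-48 construct were also tested by CLSI broth microdilution, with breakpoints from CLSI 2017 (cephalothin CLSI 2015, moxifloxacin EUCAST 2017).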"}, "[3]": {"system": "K. pneumoniae NVT1001 and its ΔompK35/36 and/or ΔramR mutants", "assay": "Etest MIC, OmpK35/36 loss and AcrAB-TolC overexpression (ΔramR) strains (Table 6)", "format": "cell-based, Klebsiella pneumoniae", "summary_of_the_method": "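Etest strips per kit instructions; off-scale intermediate readings rounded upward to the nearest two-fold concentration. Broth microdilution (CLSI) for ceftazidime, cefotaxime only. Breakpoints: CLSI 2017 generally, CLSI 2015 for cephalothin, EUCAST 2017 for moxifloxacin.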"}}, "note": "Like-named read-outs stand apart in the source and are kept apart here."}
{"smiles": "C[C@@H](O)[C@H]1C(=O)N2C(C(=O)O)=C(S[C@@H]3CN[C@H](C(=O)Nc4cccc(C(=O)O)c4)C3)[C@H](C)[C@H]12", "note": "[Ertapenem]", "values": [{"measurement": "MIC", "setting": "[1]; ΔramRΔompK35/36::ompK35/36 revertant", "result": 0.125, "unit": "µg/mL"}, {"measurement": "MIC", "setting": "[1]; ΔramRΔompK35/36::ompK35 revertant", "result": 4, "unit": "µg/mL"}, {"measurement": "MIC", "setting": "[1]; ΔramRΔompK35/36::ompK36 revertant", "result": 0.125, "unit": "µg/mL"}, {"measurement": "MIC", "setting": "[1]; ΔramRΔompK35/36::ramR revertant", "result": 1, "unit": "µg/mL"}, {"measurement": "MIC", "setting": "[1]; ΔramRΔompK35/36::ramR::ompK35/36 revertant", "result": 0.015, "unit": "µg/mL"}, {"measurement": "MIC", "setting": "[1]; ΔramRΔompK35/36::ramR::ompK35 revertant", "result": 0.03, "unit": "µg/mL"}, {"measurement": "MIC", "setting": "[1]; ΔramRΔompK35/36::ramR::ompK36 revertant", "result": 0.03, "unit": "µg/mL"}, {"measurement": "MIC", "setting": "[1]; ΔramRΔompK35/36 mutant", "result": 4, "unit": "µg/mL"}, {"measurement": "MIC", "setting": "[2]; IMP-8 on pACYC177, WT (NVT1001), read-out: MIC", "result": 2, "unit": "µg/mL"}, {"measurement": "MIC", "setting": "[2]; IMP-8 on pACYC177, Δ35 (ΔompK35 mutant)", "result": 4, "unit": "µg/mL"}, {"measurement": "MIC", "setting": "[2]; IMP-8 on pACYC177, Δ35/36 (ΔompK35/36 mutant)", "result": "> 32", "unit": "µg/mL"}, {"measurement": "MIC", "setting": "[2]; IMP-8 on pACYC177, Δ36 (ΔompK36 mutant)", "result": 2, "unit": "µg/mL"}, {"measurement": "MIC", "setting": "[2]; IMP-8 on pACYC177, ΔramR mutant", "result": 4, "unit": "µg/mL"}, {"measurement": "MIC", "setting": "[2]; IMP-8 on pACYC177, ΔramRΔ35 (ΔramRΔompK35 mutant)", "result": 4, "unit": "µg/mL"}, {"measurement": "MIC", "setting": "[2]; IMP-8 on pACYC177, ΔramRΔ35/36 (ΔramRΔompK35/36 mutant)", "result": "> 32", "unit": "µg/mL"}, {"measurement": "MIC", "setting": "[2]; IMP-8 on pACYC177, ΔramRΔ36 (ΔramRΔompK36 mutant)", "result": "> 32", "unit": "µg/mL"}, {"measurement": "MIC", "setting": "[2]; KPC-2 on pACYC177, WT (NVT1001), read-out: MIC", "result": 32, "unit": "µg/mL"}, {"measurement": "MIC", "setting": "[2]; KPC-2 on pACYC177, Δ35 (ΔompK35 mutant)", "result": 32, "unit": "µg/mL"}, {"measurement": "MIC", "setting": "[2]; KPC-2 on pACYC177, Δ35/36 (ΔompK35/36 mutant)", "result": "> 32", "unit": "µg/mL"}, {"measurement": "MIC", "setting": "[2]; KPC-2 on pACYC177, Δ36 (ΔompK36 mutant)", "result": 32, "unit": "µg/mL"}, {"measurement": "MIC", "setting": "[2]; KPC-2 on pACYC177, ΔramR mutant", "result": "> 32", "unit": "µg/mL"}, {"measurement": "MIC", "setting": "[2]; KPC-2 on pACYC177, ΔramRΔ35 (ΔramRΔompK35 mutant)", "result": "> 32", "unit": "µg/mL"}, {"measurement": "MIC", "setting": "[2]; KPC-2 on pACYC177, ΔramRΔ35/36 (ΔramRΔompK35/36 mutant)", "result": "> 32", "unit": "µg/mL"}, {"measurement": "MIC", "setting": "[2]; KPC-2 on pACYC177, ΔramRΔ36 (ΔramRΔompK36 mutant)", "result": "> 32", "unit": "µg/mL"}, {"measurement": "MIC", "setting": "[2]; KPC-3 on pACYC177, WT (NVT1001), read-out: MIC", "result": 32, "unit": "µg/mL"}, {"measurement": "MIC", "setting": "[2]; KPC-3 on pACYC177, Δ35 (ΔompK35 mutant)", "result": 32, "unit": "µg/mL"}, {"measurement": "MIC", "setting": "[2]; KPC-3 on pACYC177, Δ35/36 (ΔompK35/36 mutant)", "result": "> 32", "unit": "µg/mL"}, {"measurement": "MIC", "setting": "[2]; KPC-3 on pACYC177, Δ36 (ΔompK36 mutant)", "result": 32, "unit": "µg/mL"}, {"measurement": "MIC", "setting": "[2]; KPC-3 on pACYC177, ΔramR mutant", "result": 32, "unit": "µg/mL"}, {"measurement": "MIC", "setting": "[2]; KPC-3 on pACYC177, ΔramRΔ35 (ΔramRΔompK35 mutant)", "result": 32, "unit": "µg/mL"}, {"measurement": "MIC", "setting": "[2]; KPC-3 on pACYC177, ΔramRΔ35/36 (ΔramRΔompK35/36 mutant)", "result": "> 32", "unit": "µg/mL"}, {"measurement": "MIC", "setting": "[2]; KPC-3 on pACYC177, ΔramRΔ36 (ΔramRΔompK36 mutant)", "result": "> 32", "unit": "µg/mL"}, {"measurement": "MIC", "setting": "[2]; NDM-1 on pACYC177, WT (NVT1001), read-out: MIC", "result": 32, "unit": "µg/mL"}, {"measurement": "MIC", "setting": "[2]; NDM-1 on pACYC177, Δ35 (ΔompK35 mutant)", "result": "> 32", "unit": "µg/mL"}, {"measurement": "MIC", "setting": "[2]; NDM-1 on pACYC177, Δ35/36 (ΔompK35/36 mutant)", "result": "> 32", "unit": "µg/mL"}, {"measurement": "MIC", "setting": "[2]; NDM-1 on pACYC177, Δ36 (ΔompK36 mutant)", "result": "> 32", "unit": "µg/mL"}, {"measurement": "MIC", "setting": "[2]; NDM-1 on pACYC177, ΔramR mutant", "result": "> 32", "unit": "µg/mL"}, {"measurement": "MIC", "setting": "[2]; NDM-1 on pACYC177, ΔramRΔ35 (ΔramRΔompK35 mutant)", "result": "> 32", "unit": "µg/mL"}, {"measurement": "MIC", "setting": "[2]; NDM-1 on pACYC177, ΔramRΔ35/36 (ΔramRΔompK35/36 mutant)", "result": "> 32", "unit": "µg/mL"}, {"measurement": "MIC", "setting": "[2]; NDM-1 on pACYC177, ΔramRΔ36 (ΔramRΔompK36 mutant)", "result": "> 32", "unit": "µg/mL"}, {"measurement": "MIC", "setting": "[2]; OXA-48 on pACYC177, WT (NVT1001), read-out: MIC", "result": 4, "unit": "µg/mL"}, {"measurement": "MIC", "setting": "[2]; OXA-48 on pACYC177, Δ35 (ΔompK35 mutant)", "result": 8, "unit": "µg/mL"}, {"measurement": "MIC", "setting": "[2]; OXA-48 on pACYC177, Δ35/36 (ΔompK35/36 mutant)", "result": "> 32", "unit": "µg/mL"}, {"measurement": "MIC", "setting": "[2]; OXA-48 on pACYC177, Δ36 (ΔompK36 mutant)", "result": 8, "unit": "µg/mL"}, {"measurement": "MIC", "setting": "[2]; OXA-48 on pACYC177, ΔramR mutant", "result": 8, "unit": "µg/mL"}, {"measurement": "MIC", "setting": "[2]; OXA-48 on pACYC177, ΔramRΔ35 (ΔramRΔompK35 mutant)", "result": 8, "unit": "µg/mL"}, {"measurement": "MIC", "setting": "[2]; OXA-48 on pACYC177, ΔramRΔ35/36 (ΔramRΔompK35/36 mutant)", "result": "> 32", "unit": "µg/mL"}, {"measurement": "MIC", "setting": "[2]; OXA-48 on pACYC177, ΔramRΔ36 (ΔramRΔompK36 mutant)", "result": "> 32", "unit": "µg/mL"}, {"measurement": "MIC", "setting": "[2]; VIM-1 on pACYC177, WT (NVT1001), read-out: MIC", "result": 2, "unit": "µg/mL"}, {"measurement": "MIC", "setting": "[2]; VIM-1 on pACYC177, Δ35 (ΔompK35 mutant)", "result": 4, "unit": "µg/mL"}, {"measurement": "MIC", "setting": "[2]; VIM-1 on pACYC177, Δ35/36 (ΔompK35/36 mutant)", "result": "> 32", "unit": "µg/mL"}, {"measurement": "MIC", "setting": "[2]; VIM-1 on pACYC177, Δ36 (ΔompK36 mutant)", "result": 2, "unit": "µg/mL"}, {"measurement": "MIC", "setting": "[2]; VIM-1 on pACYC177, ΔramR mutant", "result": 4, "unit": "µg/mL"}, {"measurement": "MIC", "setting": "[2]; VIM-1 on pACYC177, ΔramRΔ35 (ΔramRΔompK35 mutant)", "result": 4, "unit": "µg/mL"}, {"measurement": "MIC", "setting": "[2]; VIM-1 on pACYC177, ΔramRΔ35/36 (ΔramRΔompK35/36 mutant)", "result": "> 32", "unit": "µg/mL"}, {"measurement": "MIC", "setting": "[2]; VIM-1 on pACYC177, ΔramRΔ36 (ΔramRΔompK36 mutant)", "result": "> 32", "unit": "µg/mL"}, {"measurement": "MIC", "setting": "[2]; no supplemental plasmid, WT (NVT1001), read-out: MIC", "result": 0.015, "unit": "µg/mL"}, {"measurement": "MIC", "setting": "[2]; no supplemental plasmid, Δ35 (ΔompK35 mutant)", "result": 0.03, "unit": "µg/mL"}, {"measurement": "MIC", "setting": "[2]; no supplemental plasmid, Δ35/36 (ΔompK35/36 mutant)", "result": 2, "unit": "µg/mL"}, {"measurement": "MIC", "setting": "[2]; no supplemental plasmid, Δ36 (ΔompK36 mutant)", "result": 0.03, "unit": "µg/mL"}, {"measurement": "MIC", "setting": "[2]; no supplemental plasmid, ΔramR mutant", "result": 0.125, "unit": "µg/mL"}, {"measurement": "MIC", "setting": "[2]; no supplemental plasmid, ΔramRΔ35 (ΔramRΔompK35 mutant)", "result": 0.125, "unit": "µg/mL"}, {"measurement": "MIC", "setting": "[2]; no supplemental plasmid, ΔramRΔ35/36 (ΔramRΔompK35/36 mutant)", "result": 4, "unit": "µg/mL"}, {"measurement": "MIC", "setting": "[2]; no supplemental plasmid, ΔramRΔ36 (ΔramRΔompK36 mutant)", "result": 4, "unit": "µg/mL"}, {"measurement": "MIC", "setting": "[3]; WT, NVT1001, read-out: MIC", "result": 0.015, "unit": "µg/mL"}, {"measurement": "MIC", "setting": "[3]; Δ35, ΔompK35 mutant", "result": 0.03, "unit": "µg/mL"}, {"measurement": "MIC", "setting": "[3]; Δ35/36, ΔompK35/36 mutant", "result": 2, "unit": "µg/mL"}, {"measurement": "MIC", "setting": "[3]; Δ36, ΔompK36 mutant", "result": 0.03, "unit": "µg/mL"}, {"measurement": "MIC", "setting": "[3]; ΔramR mutant", "result": 0.125, "unit": "µg/mL"}, {"measurement": "MIC", "setting": "[3]; ΔramRΔ35, ΔramRΔompK35 mutant", "result": 0.125, "unit": "µg/mL"}, {"measurement": "MIC", "setting": "[3]; ΔramRΔ35/36, ΔramRΔompK35/36 mutant", "result": 4, "unit": "µg/mL"}, {"measurement": "MIC", "setting": "[3]; ΔramRΔ36, ΔramRΔompK36 mutant", "result": 4, "unit": "µg/mL"}]}
